Laboratory results from patent US12421235B2, “Bridged tricyclic carbamoylpyridone compounds and uses thereof” (Gilead Sciences, Inc., priority 2020, dated 2025).
Like-named read-outs stand apart in the source and are kept apart here.

What was measured:
[1] = test system: pLai RLuc reporter virus in MT-4 cells; test: HIV MT-4 serum shift antiviral reporter assay; format: cell-based; settings: Human immunodeficiency virus 1, MT4, 72 h, read-out: RLUC CCM
Method: Example 48: HIV MT-4 Serum Shift Antiviral Reporter Assay
To quantify the amount of protein binding to human serum, compounds were serially diluted (1:3) in DMSO and acoustically transferred onto 384-well assay plates via a Labcyte ECHO robot. Each plate contained up to 8 test compounds, including negative and positive controls, (DMSO, 5 μM AZT respectively). Assay plates were prepared in duplicate, and tested in either CCM (cell culture media) or HS/CCM (human serum/cell culture media). MT-4 cells were first pre-infected with pLai RLuc reporter virus for 2 h at 37° C., then further diluted in either CCM (RPMI media, 10% FBS, 1% P/S) or HS/CCM (RPMI media, 10% FBS, 50% HS, 1% P/S), and subsequently added to each plate using a Biotek Micro Flow dispenser. After a 72-h incubation in a humidified and temperature controlled incubator (37° C.), Renilla Glo (Promega) was added to all assay plates and chemiluminescence read using an Envision plate-reader. EC50 values were defined as the compound concentration that causes a 50% decrease in luminescence signal, and were calculated using a sigmoidal dose-response model to generate curve fits. To determine the amount of protein binding, EC50 fold shifts (or EC50 shifts) were calculated by dividing EC50 (HS/CCM)/EC50 (CCM). […]

[2] = test system: HIV-1 (IIIB) in MT-4 cells; test: HIV MT-4 antiviral assay; format: cell-based; settings: Human immunodeficiency virus 1, MT4, 120 h, 5 days, Cell Titer Glo
Method: Example 47: HIV MT-4 Antiviral and Cytotoxicity Assay
Antiviral Assay in MT-4 Cells
(§1) Compounds were tested in a high-throughput 384-well assay format for their ability to inhibit the replication of HIV-1 (IIIB) in MT-4 cells. Compounds were serially diluted (1:3) in DMSO on 384-well polypropylene plates and further diluted 200-fold into complete RPMI media (10% FBS, 1% P/S) using the Biotek Micro Flow and Labcyte ECHO acoustic dispenser. Each plate contained up to 8 test compounds, with negative (No Drug Control) and 5 μM AZT positive controls. MT-4 cells were pre-infected with 10 μL of either RPMI (mock-infected) or a fresh 1:250 dilution of HIV-1 IIIB concentrated virus stock. Infected and uninfected MT-4 cells were further diluted in complete RPMI media and added to each plate using a Micro Flow dispenser. After 5 days incubation in a humidified and temperature controlled incubator (37° C.), Cell Titer Glo (Promega) was added to the assay plates and chemiluminescence read using an Envision plate-reader. EC50 values were defined as the compound concentration that causes a 50% decrease in luminescence signal, and were calculated using a sigmoidal dose-response model to generate curve fits.

[3] = Cytotoxicity assay in MT-4 cells; format: cell-based; settings: human, uninfected MT-4 cells, Cell Titer Glo
Method: as §1, with “fits. Cytotoxicity Assay in MT-4 Cells Assays were performed as above except uninfected MT-4 cells were added to each well containing test compound. In addition, 10 μM puromycin was added to the last column of each assay plate to assess a base level of cytotoxicity.” for “fits.”

[4] = High throughput microsomal stability assay (human liver microsomes); format: in vitro ADME; settings: for HLM stability: human liver microsomes, 1 uM compound, NADPH + UDPGA cofactors, 37 C
Method: Example 49: High Throughput Microsomal Stability Assay
Metabolic stability of compounds was assessed using Human, or Rat Liver Microsomal assays (Corning). In this assay, 10 nL compounds at concentration of 1 mM in 100% DMSO were dispensed into 384-well polypropylene plates using the Echo 550 acoustic liquid dispenser (Labcyte®). Each plate contained 384 wells with a single test compound in each well.
A solution of human (Corning® Gentest™ Human Mixed Pooled Microsomes), or rat (Corning® Gentest™ Rat [Sprague-Dawley] Pooled Liver Microsomes) liver microsomes at 2 mg/ml in 100 mM K2HPO4/KH2PO4 pH 7.4 with Alamethicin from Trichoderma viride (Sigma-Aldrich) 0.0225 mg/ml were incubated on ice for 15 minutes. 5 uL of this solution was added to individual wells following 15 minute incubation at room temperature; and supplemented with 5 uL NADPH Regenerating Solution of cofactors (Corning® Gentest™ UGT Reaction Mix) containing 100 mM K2HPO4/KH2PO4 pH 7.4, 2.6 mM NADP+, 6.6 mM glucose-6-phosphate, 6.6 mM MgCl2, 0.8 U/mL glucose-6-phosphate dehydrogenase, 0.1 mM Sodium Citrate, 6.8 mM uridine diphosphate-glucuronic acid. Final concentration of analyte compounds at the beginning of the reaction was 1 uM. The reactions were incubated at 37° C. and time points of 0, 5, 15, 30, 40, 50, 60, and 70 minutes were collected for further analysis. Background data were collected using reactions without analyte compounds.
Upon collection of the reaction time points, samples were quenched with 30 uL of a solution of 72% acetonitrile, 8% methanol, 0.1% formic acid, 19.9% water, and internal standard (IS). Reaction plates were span in a centrifuge at speed of 4,000 rcf for 30 minutes and 4° C., following a dilution of the 10 uL quenched reaction into 40 uL de-ionized water, yielding assay plates.
Assay plates were analyzed using solid-state extraction coupled with quadrupole time-of-flight mass spectrometer, using Agilent QToF 6530 RapidFire 360 system, with C4 type A solid state cartridges. Analysis was performed in either positive or negative ionization modes. Mobile phases contained 0.1% formic acid in water for loading analytes onto solid state extraction cartridges, and 0.1% formic acid in acetonitrile for elution into mass spectrometer in positive ionization mode, or 0.1% acetic acid in water for loading and 0.1% acetic acid in acetonitrile for extraction in negative ionization mode. Peak-area ratios of integrated counts for individual compounds to IS were plotted as semi-logarithmic chart of log vs time. Initial, linear portion of decay was fitted to a linear regression equation to derive half time of a compound decay.
Pharmacological parameters for an analyte compound metabolism were calculated using the following equations: […]
Where. Calculation of In Vitro Intrinsic Clearance
Concentration refers to the protein concentration (mg/mL) in the reaction.
Calculation of In Vivo Intrinsic Clearance
This scales the in vitro intrinsic clearance up to the value that would be predicted for the entire mass of liver tissue (but with no restriction by blood flow). The value depends upon the size of the liver (species-dependent) and the yield of microsomal protein as appropriate (assumed to be species-independent).
Calculation of Predicted Clearance
Hepatic clearance will depend upon the inter-relationship of intrinsic clearance and hepatic blood flow and can be predicted from in vitro data using a variety of approaches.
Calculation of Hepatic Extraction
This is simply the predicted clearance expressed as a proportion of hepatic blood flow. E=CL/QH*100%
Intrinsic clearance of the instant compounds, as well as for reference compounds A-F, were calculated following the procedure above.

Compound	EC50 [1] [nM]	EC50 [2] [nM]	CC50 at 5 days [3] [nM]	HLM stability [4] [mL/min/kg]	MS Cl improvement [4]	MS Cl improvement ([4]; relative to compound C)
CO[C@H]1C[C@H](F)[C@H](C)N2C[C@H]1n1cc(C(=O)NCc3c(F)cc(F)cc3F)c(=O)c(O)c1C2=O [Example 40, (3S,4S,6S,7R)-4-fluoro-12-hydroxy-6-methoxy-3-methyl-1,11-dioxo-N-(2,4,6-trifluorobenzyl)-1,4,5,6,7,11-hexahydro-3H-2,7-methanopyrido[1,2-a][1,4]diazonine-10-carboxamide]	2.87	1.1	19600	4.67		
CO[C@@H]1C=C[C@H](C)N2C[C@H]1n1cc(C(=O)NCc3ccc(F)cc3F)c(=O)c(O)c1C2=O [Example 7, (3S,6R,7R)—N-(2,4-difluorobenzyl)-12-hydroxy-6-methoxy-3-methyl-1,11-dioxo-1,6,7,11-tetrahydro-3H-2,7-methanopyrido[1,2-a][1,4]diazonine-10-carboxamide]	0.29	1.2	9910	3.33	2.0 times relative to compound E	
CC[C@]1(O)CC[C@H](C)N2C[C@H]1n1cc(C(=O)NCc3c(F)cc(F)cc3F)c(=O)c(O)c1C2=O [Example 28, (3S,6S,7R)-6-ethyl-6,12-dihydroxy-3-methyl-1,11-dioxo-N-(2,4,6-trifluorobenzyl)-1,4,5,6,7,11-hexahydro-3H-2,7-methanopyrido[1,2-a][1,4]diazonine-10-carboxamide]	0.96	4.1	24400	5.67		
C[C@H]1[C@H]2CO[C@H](C2)[C@H]2CN1C(=O)c1c(O)c(=O)c(C(=O)NCc3ccc(F)cc3F)cn12 [Example 45, (3S,4S,7R,8R)—N-(2,4-difluorobenzyl)-13-hydroxy-3-methyl-1,12-dioxo-1,4,5,7,8,12-hexahydro-3H-2,8:4,7-dimethanopyrido[1,2-d][1,4,7]oxadiazecine-11-carboxamide]	0.46	1.9	12400	2.83		
[2H]C([2H])([2H])[C@]1(O)C=C[C@H](C)N2C[C@H]1n1cc(C(=O)NCc3c(F)cc(F)cc3F)c(=O)c(O)c1C2=O [Example 29, (1R,10S,13S)-6,13-dihydroxy-10-methyl-5,8-dioxo-13-(trideuteriomethyl)-N-[(2,4,6-trifluorophenyl)methyl]-2,9-diazatricyclo[7.4.1.02,7]tetradeca-3,6,11-triene-4-carboxamide]	0.74	2	13000	1.83		
C[C@H]1CC[C@@](O)(CF)[C@H]2CN1C(=O)c1c(O)c(=O)c(C(=O)NCc3c(F)cc(F)cc3F)cn12 [Example 44, (3S,6S,7R)-6-(fluoromethyl)-6,12-dihydroxy-3-methyl-1,11-dioxo-N-(2,4,6-trifluorobenzyl)-1,4,5,6,7,11-hexahydro-3H-2,7-methanopyrido[1,2-a][1,4]diazonine-10-carboxamide]	1.9	4	44700	3.67		
[2H]C([2H])([2H])[C@]1(O)CC[C@H](C)N2C[C@H]1n1cc(C(=O)NCc3ccc(F)cc3F)c(=O)c(O)c1C2=O [Example 31, (1R,10S,13S)—N-[(2,4-difluorophenyl)methyl]-6,13-dihydroxy-10-methyl-5,8-dioxo-13-(trideuteriomethyl)-2,9-diazatricyclo[7.4.1.02,7]tetradeca-3,6-diene-4-carboxamide]	0.36	2.1	8230	3		
CCO[C@H]1CC[C@H](C)N2C[C@H]1n1cc(C(=O)NCc3c(F)cc(F)cc3F)c(=O)c(O)c1C2=O [Example 26, (3S,6S,7R)-6-ethoxy-12-hydroxy-3-methyl-1,11-dioxo-N-(2,4,6-trifluorobenzyl)-1,4,5,6,7,11-hexahydro-3H-2,7-methanopyrido[1,2-a][1,4]diazonine-10-carboxamide]	0.92	4.4	44300	3.67		
CO[C@@H]1C=C[C@H](C)N2C[C@H]1n1cc(C(=O)NCc3c(F)cc(F)cc3F)c(=O)c(O)c1C2=O [Example 4, (3S,6R,7R)-12-hydroxy-6-methoxy-3-methyl-1,11-dioxo-N-(2,4,6-trifluorobenzyl)-1,6,7,11-tetrahydro-3H-2,7-methanopyrido[1,2-a][1,4]diazonine-10-carboxamide]	0.34	1.1	11200	2.33		3.6 times relative to compound C
